According to patent US8124793B2, “Derivatives of ethylene methanedisulfonate as cancer chemotherapeutic agents” (priority 2007, dated 2012):

Assays:
Format in all cases: cell-based
[1] = test system: CCRF-CEM; assay: NCI screen, growth of human tumor cells: Leukemia CCRF-CEM; conditions: CCRF-CEM
In short: (§1)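 The NCI screen tests each compound on human cancer cell lines and reports percent growth. Concentrations are given in molar units; the number of data points per compound is sixty at minimum.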

[2] = test system: MOLT-4; assay: NCI screen, growth of human tumor cells: Leukemia MOLT-4; conditions: MOLT-4 (Leukemia), 10^−4 molar
In short: as §1

[3] = test system: RPMI-8226; assay: NCI screen, growth of human tumor cells: Leukemia RPMI-8226; conditions: RPMI-8226 (Leukemia), 10^−4 molar
In short: as §1

[4] = test system: SR; assay: NCI screen, growth of human tumor cells: Leukemia SR; conditions: SR
In short: as §1

[5] = test system: AS49/ATCC; assay: NCI screen, growth of human tumor cells: Non-Small Cell Lung AS49/ATCC; conditions: A549/ATCC, 10^−4 molar
In short: as §1

[6] = test system: EKVX; assay: NCI screen, growth of human tumor cells: Non-Small Cell Lung EKVX; conditions: EKVX, 10^−4 molar
In short: as §1

[7] = test system: HOP-62; assay: NCI screen, growth of human tumor cells: Non-Small Cell Lung HOP-62; conditions: HOP-62, 10^−4 molar
In short: as §1

[8] = test system: HOP-92; assay: NCI screen, growth of human tumor cells: Non-Small Cell Lung HOP-92; conditions: HOP-92 (Non-Small Cell Lung), 10^−4 molar
In short: as §1

[9] = test system: NCI-H522; assay: NCI screen, growth of human tumor cells: Non-Small Cell Lung NCI-H522
In short: as §1

[10] = test system: NCI-H460; assay: NCI screen, growth of human tumor cells: Non-Small Cell Lung NCI-H460; conditions: NCI-H460 (Non-Small Cell Lung), 10^−4 molar
In short: as §1

[11] = test system: NCI-H322M; assay: NCI screen, growth of human tumor cells: Non-Small Cell Lung NCI-H322M; conditions: 10^−4 molar
Experimental: (§2) In the NCI screening process, each compound was tested and described by a minimum of 60 data points. The test data include, but are not limited to the type of cancer, the molar concentration used in the screen, and the percent growth of the cancer. In some cases, NMR and elemental analysis were used for structural assignment.

[12] = test system: NCI-H23; assay: NCI screen, growth of human tumor cells: Non-Small Cell Lung NCI-H23; conditions: NCI-H23, 10^−4 molar
In short: as §1

[13] = test system: HCC-2998; assay: NCI screen, growth of human tumor cells: HCC-2998 (listed under Non-Small Cell Lung); conditions: HCC-2998, 10^−4 molar
In short: as §1

[14] = test system: COLO205; assay: NCI screen, growth of human tumor cells: Colon Cancer COLO205
In short: as §1

[15] = test system: HCT-116; assay: NCI screen, growth of human tumor cells: Colon Cancer HCT-116; conditions: HCT-116, 10^−4 molar
In short: as §1

[16] = test system: HCT-15; assay: NCI screen, growth of human tumor cells: Colon Cancer HCT-15; conditions: HCT-15 (Colon Cancer), 10^−4 molar
In short: as §1

[17] = test system: HT29; assay: NCI screen, growth of human tumor cells: Colon Cancer HT29; conditions: HT-29, 10^−4 molar
In short: as §1

[18] = test system: KM12; assay: NCI screen, growth of human tumor cells: Colon Cancer KM12; conditions: KM12, 10^−4 molar
In short: as §1

[19] = test system: SF-268; assay: NCI screen, growth of human tumor cells: CNS Cancer SF-268
In short: as §1

[20] = test system: SF-295; assay: NCI screen, growth of human tumor cells: CNS Cancer SF-295
In short: as §1

[21] = test system: SNB-19; assay: NCI screen, growth of human tumor cells: CNS Cancer SNB-19; conditions: SNB-19, 10^−4 molar
Experimental: as §2

[22] = test system: SNB-75; assay: NCI screen, growth of human tumor cells: CNS Cancer SNB-75
In short: as §1

[23] = test system: U-251; assay: NCI screen, growth of human tumor cells: CNS Cancer U-251; conditions: U251, 10^−4 molar
In short: as §1

[24] = test system: M14; assay: NCI screen, growth of human tumor cells: Melanoma M14; conditions: M14, 10^−4 molar
In short: as §1

[25] = test system: MALME-3M; assay: NCI screen, growth of human tumor cells: Melanoma MALME-3M; conditions: MALME-3M
In short: as §1

[26] = test system: SK-MEL-2; assay: NCI screen, growth of human tumor cells: Melanoma SK-MEL-2; conditions: SK-MEL-2, 10^−4 molar
In short: as §1

[27] = test system: SK-MEL-28; assay: NCI screen, growth of human tumor cells: Melanoma SK-MEL-28; conditions: SK-MEL-28 (Melanoma), 10^−4 molar
In short: as §1

[28] = test system: SK-MEL-5; assay: NCI screen, growth of human tumor cells: Melanoma SK-MEL-5; conditions: SK-MEL-5, 10^−4 molar
In short: as §1

[29] = test system: UACC-257; assay: NCI screen, growth of human tumor cells: Melanoma UACC-257; conditions: UACC-257 (Melanoma), 10^−4 molar
In short: as §1

[30] = test system: UACC-62; assay: NCI screen, growth of human tumor cells: Melanoma UACC-62; conditions: UACC-62, 10^−4 molar
In short: as §1

[31] = test system: IGROVI; assay: NCI screen, growth of human tumor cells: Ovarian Cancer IGROVI; conditions: IGROVI
In short: as §1

[32] = test system: OVCAR-3; assay: NCI screen, growth of human tumor cells: Ovarian Cancer OVCAR-3; conditions: OVCAR-3, 10^−4 molar
In short: as §1

[33] = test system: OVCAR-4; assay: NCI screen, growth of human tumor cells: Ovarian Cancer OVCAR-4; conditions: OVCAR-4 (Ovarian Cancer), 10^−4 molar
In short: as §1

[34] = test system: OVCAR-5; assay: NCI screen, growth of human tumor cells: Ovarian Cancer OVCAR-5; conditions: OVCAR-5, 10^−4 molar
In short: as §1

[35] = test system: TK-10; assay: NCI screen, growth of human tumor cells: Renal Cancer TK-10; conditions: TK-10 (Renal Cancer), 10^−4 molar
Experimental: as §2

[36] = test system: SN12C; assay: NCI screen, growth of human tumor cells: Renal Cancer SN12C; conditions: SN12C (Renal Cancer), 10^−4 molar
In short: as §1

[37] = test system: CAKI-1; assay: NCI screen, growth of human tumor cells: Renal Cancer CAKI-1; conditions: CAKI-1, 10^−4 molar
In short: as §1

[38] = test system: UO-31; assay: NCI screen, growth of human tumor cells: Renal Cancer UO-31; conditions: UO-31 (Renal Cancer), 10^−4 molar
In short: as §1

[39] = test system: PC-3; assay: NCI screen, growth of human tumor cells: Prostate Cancer PC-3; conditions: PC-3, 10^−4 molar
In short: as §1

[40] = test system: DU-145; assay: NCI screen, growth of human tumor cells: Prostate Cancer DU-145; conditions: DV-145, 10^−4 molar
In short: as §1

[41] = test system: MCF7/ADR-RES; assay: NCI screen, growth of human tumor cells: Breast Cancer MCF7/ADR-RES; conditions: MCF7/ADR-RES, 10^−4 molar
In short: as §1

[42] = test system: BT-549; assay: NCI screen, growth of human tumor cells: Breast Cancer BT-549; conditions: BT-549 (Breast Cancer), 10^−4 molar
In short: as §1

[43] = test system: HS 578T; assay: NCI screen, growth of human tumor cells: Breast Cancer HS 578T; conditions: H5-578T
In short: as §1

[44] = test system: MDA-MB-231/ATCC; assay: NCI screen, growth of human tumor cells: Breast Cancer MDA-MB-231/ATCC; conditions: MDA-MB-231/ATCC (Breast Cancer), 10^−4 molar
Experimental: as §2

[45] = test system: human cancer cells; assay: NCI screen summary over the cancers tested (negative growth of human cancer cells); conditions: 10^−4 M conc.
Experimental: as §2
The derivatives in the tables are grouped using the same category as in the tables 1-6.

Substance: propane-1-[hydroxyhydrogensulfate]-3-(2-methylnaphthyl)-3,3-(ethylenedisulfonate) [NSC 693879]
- % Growth ([1]; 10^−4 molar): −33%
- % Growth ([1]; 10^−5 molar): 52%
- percent of growth of human tumor cells [2]: −16%
- percent of growth of human tumor cells [3]: −28%
- % Growth ([4]; 10^−4 molar): −19%
- % Growth ([4]; 10^−5 molar): 13%
- % Growth [5]: −62%
- % Growth [6]: −90%
- % Growth [7]: −65%
- percent of growth of human tumor cells [8]: −35%
- % Growth ([9]; NCI-H522, 10^−4 molar): −100%
- % Growth ([9]; NCI-H522, 10^−5 molar): 35%
- % Growth ([9]; NCI-H522, 10^−6 molar): 63%
- percent of growth of human tumor cells [10]: −58%
- percent of growth of human tumor cells ([11]; NCI-H322M (Non-Small Cell Lung)): −71%
- % Growth ([11]; NCI-H322M): −71%
- % Growth [12]: −65%
- % Growth [13]: −78%
- % Growth ([14]; COLO205, 10^−4 molar): −73%
- % Growth ([14]; COLO205, 10^−5 molar): 57%
- % Growth [15]: −79%
- percent of growth of human tumor cells [16]: −39%
- % Growth [17]: −86%
- % Growth [18]: −92%
- % Growth ([19]; SF-268, 10^−4 molar): −56%
- % Growth ([19]; SF-268, 10^−5 molar): 59%
- % Growth ([20]; SF-295, 10^−4 molar): −82%
- % Growth ([20]; SF-295, 10^−5 molar): 58%
- % Growth [21]: −72%
- % Growth ([22]; SNB-75, 10^−4 molar): −62%
- % Growth ([22]; SNB-75, 10^−5 molar): 55%
- % Growth [23]: −100%
- % Growth [24]: −100%
- % Growth ([25]; 10^−4 molar): −100%
- % Growth ([25]; 10^−5 molar): 44%
- % Growth ([25]; 10^−6 molar): 62%
- % Growth [26]: −99%
- percent of growth of human tumor cells [27]: −5%
- % Growth [28]: −100%
- percent of growth of human tumor cells [29]: −32%
- % Growth [30]: −66%
- % Growth ([31]; 10^−4 molar): −89%
- % Growth ([31]; 10^−5 molar): 50%
- % Growth ([31]; 10^−6 molar): 60%
- % Growth ([31]; 10^−7 molar): 52%
- % Growth [32]: −100%
- percent of growth of human tumor cells [33]: −40%
- % Growth [34]: −100%
- percent of growth of human tumor cells [35]: −3%
- percent of growth of human tumor cells [36]: −57%
- % Growth [37]: −87%
- percent of growth of human tumor cells [38]: −48%
- % Growth [39]: −100%
- % Growth [40]: −100%
- % Growth [41]: −54%
- percent of growth of human tumor cells [42]: −34%
- % Growth ([43]; 10^−4 molar): −49%
- % Growth ([43]; 10^−5 molar): 55%
- percent of growth of human tumor cells [44]: −54%
- percentage of cancers that had −100% growth [45]: 20%
- Percentage of cancers showing negative growth cancers tested ([45]; cancers with negative growth / cancers tested): 100%
